22 compounds from patent US10752617B2 (GALDERMA RESEARCH & DEVELOPMENT, priority 2014, dated 2020) can be followed below.

Test [1] addresses T1, GAL4-RORγ (GAL4 DBD fused to the ROR gamma ligand-binding domain) (Homo sapiens, UniProt P51449).
T1 construct: expressed in transfected cells; host or cells: HG5LN (HeLa line with GAL4-responsive luciferase reporter)
T1 sequence (P51449 269-508 limits assumed): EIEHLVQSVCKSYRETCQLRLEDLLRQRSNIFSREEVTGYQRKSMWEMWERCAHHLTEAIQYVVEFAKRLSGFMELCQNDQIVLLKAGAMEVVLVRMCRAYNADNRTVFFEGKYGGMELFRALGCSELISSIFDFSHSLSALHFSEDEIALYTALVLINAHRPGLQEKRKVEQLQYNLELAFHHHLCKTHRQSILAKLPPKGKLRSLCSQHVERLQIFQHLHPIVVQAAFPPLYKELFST
Kind of test: GAL4-RORγ transactivation (luciferase reporter, HG5LN HeLa line). To be noted: HG5LN HeLa cells, 18 hours incubation, luciferase luminescence, read-out: IC50 hRORg. The test is classed as cell-based. An excerpt:
(§1) In the tables described above, the median inhibitory concentrations IC50 for the compounds belonging to formula (I) according to the invention have been given according to the following models:
GAL4-RORγ Transactivation
The RORγ transactivation model was developed from the line HG5LN, which is a HeLa line that stably expresses a luciferase reporter gene controlled by a pentamer of the GAL4 recognition domain of yeast and of a β-globin promoter. The HG5LN line was stably transfected by the DNA-binding domain (DBD) of GAL4 fused to the ROR gamma ligand-binding domain (LBD). Molecules that inhibit the ROR gamma constitutive activity reduce the luciferase expression, thus leading to a reduction in the emitted luminescence.
The cells are seeded in 384-well plates (5000 cells in 45 μL/well of culture medium containing 10% fetal calf serum) and incubated for 4 hours at 37° C., 5% CO2. 5 μL of the test molecules (compounds described in the tables described above) are then added to each well and the plates are incubated for 18 hours at a temperature of 37° C. under 5% of CO2. 20 μL of luciferase substrate (Promega) are added to each well and the luminescence emitted is read by a microplate reader.
The luminescence units (“RLU”) are normalized by positive controls (“POS” containing a saturated concentration of N-(2,2,2-trifluoroethyl)-N-[4-[2,2,2-trifluoro-1-hydroxy-1-(trifluoromethyl)ethyl]phenyl])benzenesulfonamide and negative controls (“NEG” containing DMSO): % inhibition=((RLU−NEG)*100)/(POS−NEG). The IC50 values are calculated from a 4-parameter logistic model using the XLFit software (IDBS).
A general note: A reporter such as luciferase makes a cellular process visible.

Test [2] relates to IL-17A secretion by CD4+ cells. Kind of test: IL-17A secretion by activated CD4+ cells (HTRF). The test is classed as cell-based. Particulars: 96 h; human CD4+ cells activated with anti-CD3 and anti-CD28, 4 days of incubation, inhibitors 1000 nM to 0.05 nM; read-out: IC50 hCD4/IL17. The method, then:
as §1
This model allows measurement of the effect of inhibitors on IL-17A secretion by CD4+ cells. The cells are frozen CD4+ cells (STEMCELL, #70026), isolated from peripheral human blood and activated with anti-CD3 and anti-CD28 antibodies. The amount of IL-17a secreted is measured by the TR-FRET (kit HTRF® Human Interleukin 17A (Cisbio, #64H17PEC)) technology.
The cells are rapidly thawed, resuspended in their culture medium (RPMI inactivated 10% FCS) supplemented with soluble anti-CD28 antibodies and seeded (100 000 cells/well) in 96-well plates precoated with anti-CD3 antibodies. The cells are then treated with the ranges of inhibitors to be tested (from 1000 nM to 0.05 nM, 0.1% DMSO). After 4 days of incubation, the HTRF signal is measured using a microplate reader (λexcitation=337 nm, λemission=620/665 nm). The ratios obtained (665/620) are normalized relative to the positive control (cells activated with anti-CD3 and anti-CD28, 0.1% DMSO). The IC50 values are calculated from a 4-parameter logistic model using the XLFit software (IDBS).
(In general: Time-resolved FRET reads energy transfer from a long-lived donor to a nearby acceptor.)

The structures appear in SMILES notation.

Take `CCc1ccc(N(C(CC)CC)S(=O)(=O)c2ccc3c(cnn3CC3CCOCC3)c2)cc1` [Compound 1, 1-(tetrahydropyran-4-ylmethyl)-1H-indazole-5-sulfonic acid (4-ethylphenyl)(1-ethylpropyl)amide]: the IC50 in test [1] and in test [2] was 100 to 1000 nM in each case. Consider `CCc1ccc(N(CC(C)C)S(=O)(=O)c2ccc3c(cnn3Cc3ccncc3)c2)cc1` [Compound 36, N-(4-ethylphenyl)-N-isobutyl-1-(pyridin-4-ylmethyl)-1H-indazole-5-sulfonamide], for which the IC50 is 100 to 1000 nM in test [1] and less than 100 nM in test [2]. For `CCc1ccc(N(CC(C)C)S(=O)(=O)c2ccc3c(cnn3CC3COC3)c2)cc1` [Compound 37, N-(4-ethylphenyl)-N-isobutyl-1-(oxetan-3-ylmethyl)-1H-indazole-5-sulfonamide], the values for the IC50 in test [1] and in test [2] were 100 to 1000 nM and less than 100 nM, respectively.

As for `CCc1ccc(N(CC(C)C)S(=O)(=O)c2ccc3c(cnn3CC3CCOCC3)c2)cc1` [Compound 39, N-(4-ethylphenyl)-N-isobutyl-1-((tetrahydro-2H-pyran-4-yl)methyl)-1H-indazole-5-sulfonamide], the IC50 in test [1] and in test [2] was 100 to 1000 nM throughout.

For `Cc1cccc(F)c1N(CC(C)C)S(=O)(=O)c1ccc2c(cnn2CC2CCOCC2)c1` [Compound 53, 1-(tetrahydropyran-4-ylmethyl)-1H-indazole-5-sulfonic acid (2-fluoro-6-methylphenyl)isobutylamide], the IC50 in test [1] is more than 1000 nM. For the compound `Cc1cc(F)ccc1N(CC(C)C)S(=O)(=O)c1ccc2c(cnn2CC2CCOCC2)c1` [Compound 54, 1-(tetrahydropyran-4-ylmethyl)-1H-indazole-5-sulfonic acid (4-fluoro-2-methylphenyl)isobutylamide], the IC50 in test [1] was in the range of 100 to 1000 nM. `COc1ccc(N(CC(C)C)S(=O)(=O)c2ccc3c(cnn3CC3CCOCC3)c2)c(C)c1` [Compound 55, 1-(tetrahydropyran-4-ylmethyl)-1H-indazole-5-sulfonic acid isobutyl(4-methoxy-2-methylphenyl)amide]: in test [1], the IC50 lay in the range of 100 to 1000 nM. `COC(=O)c1ccc(N(CC(C)C)S(=O)(=O)c2ccc3c(cnn3CC3CCOCC3)c2)c(C)c1` [Compound 56, methyl 4-{isobutyl[1-(tetrahydropyran-4-ylmethyl)-1H-indazole-5-sulfonyl]amino}-3-methylbenzoate]: the IC50 in test [1] is 100 to 1000 nM; in test [2], less than 100 nM.

Take `Cc1cc(C#N)ccc1N(CC(C)C)S(=O)(=O)c1ccc2c(cnn2CC2CCOCC2)c1` [Compound 57, 1-(tetrahydropyran-4-ylmethyl)-1H-indazole-5-sulfonic acid (4-cyano-2-methylphenyl)isobutylamide]: in test [1], the IC50 lay within 100 to 1000 nM. On the same count and under the same terms, then `CC(C)CN(c1ccccc1C(F)(F)F)S(=O)(=O)c1ccc2c(cnn2CC2CCOCC2)c1` [Compound 58, 1-(tetrahydropyran-4-ylmethyl)-1H-indazole-5-sulfonic acid isobutyl(2-trifluoromethylphenyl)amide], with 100 to 1000 nM; and `CC(C)CN(c1ccc(C(F)(F)F)cc1)S(=O)(=O)c1ccc2c(cnn2CC2CCOCC2)c1` [Compound 59, 1-(tetrahydropyran-4-ylmethyl)-1H-indazole-5-sulfonic acid isobutyl(4-trifluoromethylphenyl)amide], with more than 1000 nM.

Consider `CCc1ccc(N(CC(CO)CCl)S(=O)(=O)c2ccc3c(cnn3CC3CCOCC3)c2)cc1` (stereo not shown) [Compound 60, 1-(tetrahydropyran-4-ylmethyl)-1H-indazole-5-sulfonic acid (3-chloro-2-hydroxymethylpropyl)(4-ethylphenyl)amide], for which the IC50 in test [1] is more than 1000 nM. As to `CCc1ccc(N(CC(C)C)S(=O)(=O)c2ccc3[nH]nc(OCC4CCOCC4)c3c2)cc1` [Compound 61, 3-(tetrahydropyran-4-ylmethoxy)-1H-indazole-5-sulfonic acid (4-ethylphenyl)isobutylamide], the IC50 in test [1] is more than 1000 nM. On the same count and under the same terms, then `CCc1ccc(N(CC(C)C)S(=O)(=O)c2ccc3c(C=C4CCOCC4)n[nH]c3c2)cc1` [Compound 62, 3-(tetrahydropyran-4-ylidenemethyl)-1H-indazole-6-sulfonic acid (4-ethylphenyl)isobutylamide], with less than 100 nM. In the case of `CCc1ccc(N(CC(C)C)S(=O)(=O)c2ccc3c(CC4CCOCC4)n[nH]c3c2)cc1` [Compound 63, 3-(tetrahydropyran-4-ylmethyl)-1H-indazole-6-sulfonic acid (4-ethylphenyl)isobutylamide], the IC50 in test [1] and in test [2] was less than 100 nM in each case.

Take `CCc1ccc(N(CC(C)C)S(=O)(=O)c2ccc3c(CN4CCOCC4)n[nH]c3c2)cc1` [Compound 64, 3-morpholin-4-ylmethyl-1H-indazole-6-sulfonic acid (4-ethylphenyl)isobutylamide]: the IC50 in test [1] and in test [2] was less than 100 nM throughout.

For the compound `CCc1ccc(N(CC(C)C)S(=O)(=O)c2ccc3c(CN4C[C@@H](C)O[C@@H](C)C4)n[nH]c3c2)cc1` [Compound 65, 3-((cis)-2,6-dimethylmorpholin-4-ylmethyl)-1H-indazole-6-sulfonic acid (4-ethylphenyl)isobutylamide], in test [1], the IC50 was more than 1000 nM.

As for `CCc1ccc(N(CC(C)C)S(=O)(=O)c2ccc3c(CN4CCOC[C@@H]4C)n[nH]c3c2)cc1` [Compound 66, 3-((S)-3-methylmorpholin-4-ylmethyl)-1H-indazole-6-sulfonic acid (4-ethylphenyl)isobutylamide], the IC50 in test [1] was in the range of 100 to 1000 nM.

In the case of `Cc1ccc(N(CC(C)C)S(=O)(=O)c2ccc3c(cnn3CC3CCOCC3)c2)c(C#N)c1` [Compound 70, 1-(tetrahydropyran-4-ylmethyl)-1H-indazole-5-sulfonic acid (2-cyano-4-methylphenyl)isobutylamide], the IC50 in test [1] was 100 to 1000 nM. As to `Cc1cc(C)c(N(CC(C)C)S(=O)(=O)c2ccc3c(cnn3CC3CCOCC3)c2)cn1` [Compound 71, 1-(tetrahydropyran-4-ylmethyl)-1H-indazole-5-sulfonic acid (4,6-dimethylpyridin-3-yl)isobutylamide], the IC50 in test [1] and in test [2] was more than 1000 nM throughout. Take `CC(C)CN(c1ccc(N(C)C)cc1)S(=O)(=O)c1ccc2c(cnn2CC2CCOCC2)c1` [Compound 72, 1-(tetrahydropyran-4-ylmethyl)-1H-indazole-5-sulfonic acid (4-dimethylaminophenyl)isobutylamide]: the IC50 in test [1] and in test [2] was 100 to 1000 nM in each case. For `CCc1ccc(N(CC(C)C)S(=O)(=O)c2cc(C(=O)OC)c3c(cnn3CC3CCOCC3)c2)cc1` [Compound 74, methyl 5-[(4-ethylphenyl)isobutylsulfamoyl]-1-(tetrahydropyran-4-ylmethyl)-1H-indazole-7-carboxylate], the IC50 in test [1] was more than 1000 nM.
